In brackets after ≈: the same amount, converted by molar mass.
Key:
Type in all cases: functional
[1] = tested on: Mycobacterium tuberculosis; assay: Antimycobacterial activity against quinolone-resistant, multidrug-resistant Mycobacterium tuberculosis
[2] = tested on: Mycobacterium tuberculosis; assay: Antimycobacterial activity against drug-resistant Mycobacterium tuberculosis
[3] = tested on: Mycobacterium tuberculosis; assay: Antimycobacterial activity against EMB-resistant Mycobacterium tuberculosis
[4] = tested on: Mycobacterium tuberculosis; assay: Antimycobacterial activity against INH-resistant Mycobacterium tuberculosis
[5] = tested on: Mycobacterium tuberculosis; assay: Antimycobacterial activity against RIF-resistant Mycobacterium tuberculosis

COc1c(N2CC3(CC3)[C@](C)(N)C2)c(F)cc2c(=O)c(C(=O)O)cn([C@@H]3C[C@@H]3F)c12 gave an MIC90 [1] of 0.5 µg/mL (≈ 1.19 µM).

C[C@]1(COc2ccc(N3CCC(Oc4ccc(OC(F)(F)F)cc4)CC3)cc2)Cn2cc([N+](=O)[O-])nc2O1 gave an MIC [2] of 0.006 µg/mL (≈ 0.0112 µM).

COc1nc2ccc(Br)cc2cc1[C@@H](c1ccccc1)[C@@](O)(CCN(C)C)c1cccc2ccccc12 [BEDAQUILINE] was tested, and the MIC [2] was 0.003 µg/mL (≈ 0.0054 µM).

In the case of O=[N+]([O-])c1cn2c(n1)OC[C@@H](OCc1ccc(OC(F)(F)F)cc1)C2 [PRETOMANID], the MIC [2] is reported as 0.015 µg/mL (≈ 0.0418 µM).

With CC(C)=CCC/C(C)=C/CNCCNC1C2CC3CC(C2)CC1C3 (stereo not drawn) [SQ109] the MIC [3] was 0.9 µM (≈ 0.298 µg/mL), the MIC [4] was 1.4 µM (≈ 0.463 µg/mL) and the MIC [5] was 0.7 µM (≈ 0.231 µg/mL).

Work on CC(=O)NC[C@H]1CN(c2ccc(N3CCSCC3)c(F)c2)C(=O)O1 [SUTEZOLID] yielded an MIC [2] of 0.03 µg/mL (≈ 0.0849 µM).
